Data reported in the NIST ThermoML archive (doi:10.1021/je1003065).

Experiment: mn = molality of the nth substance listed, in mol/kg
Conditions: Liquid, Vibrating tube method

[Br-].[Li+] [lithium bromide] + CCO
Conditions | mass density [kg/m3]
353.15 K, 39784 kPa, m1 = 0.9499 | 834.79
353.15 K, 39945 kPa, m1 = 2.833 | 939.73
353.15 K, 39986 kPa, m1 = 0.2335 | 790.37
353.15 K, 40152 kPa, m1 = 0.5972 | 813.43
353.15 K, 49925 kPa, m1 = 0.9499 | 842.49
353.15 K, 49993 kPa, m1 = 0.5972 | 821.26
353.15 K, 59926 kPa, m1 = 0.9499 | 849.56
353.15 K, 60014 kPa, m1 = 0.2335 | 805.45
353.15 K, 60014 kPa, m1 = 2.833 | 952.95
353.15 K, 60225 kPa, m1 = 0.5972 | 828.81
353.15 K, 69845 kPa, m1 = 0.9499 | 856.11
353.15 K, 69979 kPa, m1 = 0.5972 | 835.44
353.15 K, 79924 kPa, m1 = 0.9499 | 862.38
353.15 K, 79968 kPa, m1 = 2.833 | 964.64
353.15 K, 80004 kPa, m1 = 0.2335 | 818.76
353.15 K, 80139 kPa, m1 = 0.5972 | 841.77
353.15 K, 90021 kPa, m1 = 0.9499 | 868.33
353.15 K, 99895 kPa, m1 = 2.833 | 975.38
353.15 K, 99925 kPa, m1 = 0.9499 | 873.94
353.15 K, 99987 kPa, m1 = 0.2335 | 829.93
353.16 K, 1827 kPa, m1 = 2.272 | 878.19
353.16 K, 2037 kPa, m1 = 0.5972 | 777.89
353.16 K, 5076 kPa, m1 = 2.272 | 881.19
353.16 K, 30024 kPa, m1 = 2.833 | 932.51
353.16 K, 50031 kPa, m1 = 0.2335 | 798.55
353.16 K, 69784 kPa, m1 = 2.833 | 958.82
353.16 K, 89993 kPa, m1 = 0.5972 | 847.35
353.17 K, 10149 kPa, m1 = 0.5972 | 786.15
353.17 K, 70025 kPa, m1 = 0.2335 | 812.93
353.18 K, 100098 kPa, m1 = 0.5972 | 852.48
353.2 K, 79893 kPa, m1 = 3.368 | 991.32
353.2 K, 89986 kPa, m1 = 3.368 | 996.68
353.2 K, 99526 kPa, m1 = 3.368 | 1001.5
353.21 K, 1063 kPa, m1 = 3.368 | 935.92
353.21 K, 4909 kPa, m1 = 3.368 | 939.35
353.21 K, 10311 kPa, m1 = 3.368 | 944.02
353.21 K, 30003 kPa, m1 = 3.368 | 959.64
353.21 K, 40073 kPa, m1 = 3.368 | 966.87
353.21 K, 49925 kPa, m1 = 3.368 | 973.5
353.21 K, 59786 kPa, m1 = 3.368 | 979.72
353.21 K, 69928 kPa, m1 = 3.368 | 985.74
353.22 K, 19643 kPa, m1 = 3.368 | 951.68
373.11 K, 79585 kPa, m1 = 2.272 | 924.75
373.12 K, 2208 kPa, m1 = 3.368 | 920.02
373.12 K, 5044 kPa, m1 = 3.368 | 922.8
373.12 K, 19844 kPa, m1 = 3.368 | 936.43
373.12 K, 59597 kPa, m1 = 2.272 | 911.69
373.12 K, 69993 kPa, m1 = 2.272 | 918.69
373.13 K, 10014 kPa, m1 = 3.368 | 927.55
373.13 K, 20555 kPa, m1 = 0.5972 | 780.15
373.13 K, 69957 kPa, m1 = 0.2335 | 799.09
373.14 K, 2369 kPa, m1 = 1.462 | 814.46
